Results: the NIST ThermoML archive (doi:10.1016/j.fluid.2008.11.001)

Experiments:
[1] = 298.15 K; 101 kPa; Liquid; Vibrating tube method
[2] = refractive index (Na D-line) (dimensionless); settings: 298.15 K; 101.33 kPa; Liquid; refractometer
[3] = xn = mol fraction of the nth substance listed; settings: 298.15 K, 101 kPa, Liquid, Vibrating tube method
[4] = refractive index (Na D-line) (dimensionless); xn = mol fraction of the nth substance listed; settings: 298.15 K, 101 kPa, Liquid, refractometer

CC(C)CC(C)(C)C [2,2,4-trimethylpentane]
Settings | mass density [kg/m3] | refractive index
[1] | 688.18 | –
[2] | – | 1.38898

COC(=O)OC [dimethyl carbonate] + CCO
Settings | mass density, [3] [kg/m3] | refractive index, [4]
x1 = 0.051 | 805.05 | 1.36039
x1 = 0.1 | 823.15 | 1.3606
x1 = 0.1999 | 857.92 | 1.36122
x1 = 0.2998 | 889.9 | 1.36186
x1 = 0.4005 | 919.86 | 1.36241
x1 = 0.5008 | 947.72 | 1.36301
x1 = 0.6011 | 973.66 | 1.36375
x1 = 0.6993 | 997.55 | 1.36439
x1 = 0.8002 | 1020.67 | 1.36504
x1 = 0.9008 | 1042.49 | 1.36576
x1 = 0.9514 | 1053.11 | 1.36614
x1 = 1 | 1063.04 | 1.36654

COC(=O)OC [dimethyl carbonate]
Settings | mass density [kg/m3] | refractive index
[1] | 1063.04 | –
[2] | – | 1.36654

CC(C)CC(C)(C)C [2,2,4-trimethylpentane] + COC(=O)OC
x2 = 0
Settings | mass density [kg/m3] | refractive index
[3] | 688.18 | –
[4] | – | 1.38898

CCO [ethanol] + COC(=O)OC
x2 = 0
Settings | mass density [kg/m3] | refractive index
[3] | 785.33 | –
[4] | – | 1.35933

COC(=O)OC [dimethyl carbonate] + CC(C)CC(C)(C)C
Settings | mass density, [3] [kg/m3] | refractive index, [4]
x1 = 0.0508 | 697.25 | 1.38814
x1 = 0.1017 | 706.78 | 1.38716
x1 = 0.1995 | 727.06 | 1.38504
x1 = 0.3007 | 751.06 | 1.38275
x1 = 0.4002 | 778.05 | 1.38062
x1 = 0.5002 | 809.37 | 1.37889
x1 = 0.5996 | 845.17 | 1.37642
x1 = 0.7005 | 887.53 | 1.37408
x1 = 0.8002 | 936.46 | 1.37109
x1 = 0.9011 | 994.92 | 1.36879
x1 = 0.9504 | 1027.38 | 1.36722
x1 = 1 | 1063.04 | 1.36654

CCO [ethanol]
Settings | mass density [kg/m3] | refractive index
[1] | 785.33 | –
[2] | – | 1.35933
